{
  "source": "patent US11058772B2",
  "about": "“(Bacterio)chlorophyll photosensitizers for treatment of eye diseases and disorders” (Yeda Research and Development Co. Ltd., priority 2011, dated 2021)",
  "key": {"rabbit sclera": {"tested_on": "rabbit sclera", "experiment": "Biomechanical testing of rabbit sclera treated ex vivo, external NIR illumination", "conditions": "2.5 mg/ml 30 min, external NIR 30 min", "protocol": "The opposite side of the sclera served as control. Scleral strips, 4 mm in width, were cut at the equatorial treated area and the opposite sclera, and stress-strain measurements were performed using a biomaterial tester.\n(§1) The corneal and scleral strips were clamped horizontally, at a distance of 6 mm, between the jaws of a microcomputer-controlled biomaterial tester (Minimat, Germany) with a 200 Newton force cell (FIG. 1). Controlled tightening of screws was performed with a calibrated screwdriver at a preset torque of 9 cN.m (Torqueleader, England). The strain was increased linearly at a rate of 1.0 mm/min and was measured up to tissue rupture. Young's modulus was calculated by the testing machine. Ultimate stress and Young's modulus were expressed in Mega Pascal (MPa) units.\nStress-strain tests of sclera of enucleated rabbits' eyes were performed following treatment with WST11 (2.5 mg/ml) as described in Materials and Methods. After photosensitizer impregnation, the sclera was illuminated by applying the laser beam directly onto the treated area (external illumination), using a flat optical fiber that run along a curved plastic or metal glide as shown in FIG. 17A. Strips of the sclera were cut and tested."}, "rabbit cornea [1]": {"tested_on": "rabbit cornea", "experiment": "Penetration depth in cornea from aqueous 65% sucrose solution", "type": "in vivo", "conditions": "2.5 mg/ml in aqueous 65% sucrose", "protocol": "Eyes of rabbits were enucleated and deepithelialised mechanically post mortem. The eyes were exposed to Bchl-S solution using an eye cap for 5, 10, and 30 minutes and to Bchl-D solution for 10 and 30 min, in darkness. Controls: untreated eyes, and one eye treated with dextran-500 only for 30 min in darkness. Following this pretreatment, the corneas were briefly rinsed with saline and the central 8-mm buttons were trephined, removed, wrapped in aluminum foil and frozen on dry ice until further use. Central serial corneal sagittal slices (12 μm) were cut with a cryomicrotome, mounted on a microscope glass slide and stored frozen in −70° C. until use. For measurement of fluorescence, the individual slices were placed on the microscope base and a photographic record was immediately taken. Fluorescence intensity of Bchl-S or Bchl-D treated corneas from 3 serial cryo sections was recorded at 760 nm, upon excitation at 740 nm, using a fluorescence microscope (BX61 Olympus, Japan) equipped with CCD camera (Cascade 512B, Roper Sci., USA) and a long pass filter of above 760 nm. The digital data was analyzed, using ImageJ software (NIH, USA). […]"}, "rabbit cornea [2]": {"tested_on": "rabbit cornea", "experiment": "Ex-vivo ESR measurements of rabbit corneas", "conditions": "cornea strips, 4-POBN 65 mM, ethanol 8%", "protocol": "All ESR measurements were carried out using a Magnettech ESR Miniscope MS 100 Spectrometer (Germany), with a Microwave X-band Bridge. The ESR spectrometer operates at 9.3-9.55 GHz, 20 mW microwave power. ESR measurements were carried out at room temperature in glass capillaries or flat cells. Eyes of rabbits were enucleated post mortem. The corneas were de-epithelialized mechanically and corneal strips, 5 mm in width, were cut with a self-constructed double-blade cutter. The strips were immediately immersed for 30 min in solutions containing 4-POBN (65 mM) and ethanol (8%), and either Bchl-S or RF-D. Next, the strips were washed with saline and put in the flat-cells (0.5×5 mm^3) for NIR/UVA illumination followed by ESR measurements with the aforementioned Miniscope."}, "[3]": {"experiment": "ESR spin trapping (4-POBN) of reactive oxygen species in aqueous solution", "type": "physicochemical", "conditions": "NIR (WST11) or UVA (RF) irradiation", "protocol": "All ESR measurements were carried out using a Magnettech ESR Miniscope MS 100 Spectrometer (Germany), with a Microwave X-band Bridge. The ESR spectrometer operates at 9.3-9.55 GHz, 20 mW microwave power. ESR measurements were carried out at room temperature in glass capillaries or flat cells. […] To each solution, the spin-trap α-(4-pyridyl N-oxide)-N-tert-butylnitrone (4-POBN, 65 mM) and ethanol (8%) were added. Controls contained illuminated 4-POBN in saline with/without dextran, and non-illuminated Bchl-S, Bchl-D, RF and RF-D solutions with/without 4-POBN."}, "rabbit cornea [4]": {"tested_on": "rabbit cornea", "experiment": "Stress-strain measurements of ex-vivo treated corneas", "conditions": "for Mean Young's Modulus Intensity / Mean ultimate stress Intensity: 30 min incubation then 30 min illumination (NIR for WST11, UVA for RF-D); for Mean Young's Modulus Intensity / Mean ultimate stress Intensity / Mean Young's Modulus Increase % / Mean ultimate stress Increase %: dipotassium salt; for Mean Young's Modulus Increase % / Mean ultimate stress Increase %: 30 min incubation, 30 min NIR, vs untreated fellow eyes", "protocol": "Eyes of rabbits (15-16 weeks old, weighting 3-4 Kg) were enucleated post mortem. Before enucleation, the 12 and 6 h position were marked on the sclera for preservation of subsequent cutting orientation. The corneas were de-epithelialized mechanically using a PKR scraper (Becton Dickenson, USA). Usually, about 10 rabbits were assigned to bacteriochlorophyll/NIR treatment, herein the “test group” (for example WST11/NIR), and 2 rabbits were treated by RF/UVA (herein the “RF/UVA group”) for comparison. In the test group, 10 eyes of 10 rabbits were immersed upside down for 30 minutes in test compound saline solution (Bchl-S) followed by NIR illumination (600-900 nm) with a diode laser at 10 mW/cm^2 for 30 minutes. The untreated contralateral eyes served as controls. In the RF/UVA group, RF-D solution was topically applied on 2 eyes of 2 rabbits, every 10 minutes, for 30 minutes, followed by UVA irradiation at 370 nm by a double diode at 3 mW/cm^2, for 30 minutes. After treatment, the corneo-scleral rings were removed and placed on paraffin hemisphere buttons with a matching shape to establish accurate sectioning without tissue stretching. […] The strips included 2 mm of sclera on both ends. Central corneal thickness was measured by ultrasonic pachymetry (Humphrey ultrasonic pachymeter, USA). The corneal strips were then transferred to the biomechanical tester.\nas §1\nStress-strain measurements were conducted in 12 rabbits as described in Materials and Methods. Briefly, 10 eyes of 10 rabbits were treated by WST11/NIR, and 2 eyes of 2 rabbits were treated by RF-D/UVA. The contralateral eyes served as control."}},
  "note": "“Also recorded” adds a separate entry of the source.",
  "data": [
    {"smiles": "CCC1C2=Cc3c(C)c(C(=O)NCCS(=O)(=O)[O-])c4[n]3[Pd][n]3c(c(C)c(C(C)=O)c3=CC(=N2)C1C)=CC1=NC(=C4CC(=O)OC)C(CCC(=O)[O-])C1C.[K+].[K+]", "note": "(stereo not shown) [WST11, Palladium 3^1-oxo-15-methoxycarbonylmethyl-rhodobacteriochlorin 13^1-(2-sulfoethyl)amide dipotassium salt]", "values": [
      {"measurement": "mean maximal stress", "setting": "rabbit sclera; control 2.77±0.99", "value": "7.6±0.99", "unit": "MPa"},
      {"measurement": "mean Young's modulus", "setting": "rabbit sclera; control 15.2±7.5", "value": "45.6±3.9", "unit": "MPa"},
      {"measurement": "penetration, fraction of the outer stroma", "setting": "rabbit cornea [1]; 10-min incubation", "value": "⅓"},
      {"measurement": "penetration, fraction of the outer stroma", "setting": "rabbit cornea [1]; 30-min incubation", "value": "½"},
      {"measurement": "ESR signals of ROS trapped in the treated cornea", "setting": "rabbit cornea [2]", "value": "no traces of singlet oxygen"},
      {"measurement": "singlet oxygen trapping (ESR quartet of 4-POBN)", "setting": "[3]", "value": "minimal traces of singlet oxygen"},
      {"measurement": "superoxide and hydroxyl radicals (ESR sextet of 4-POBN)", "setting": "[3]; dipotassium salt", "value": "generate superoxide and hydroxyl radicals; also recorded: superoxide and hydroxyl radical formation"},
      {"measurement": "Mean Young's Modulus Intensity", "setting": "rabbit cornea [4]", "value": "17.65 ± 8.25", "unit": "MPa"},
      {"measurement": "Mean ultimate stress Intensity", "setting": "rabbit cornea [4]", "value": "5.98 ± 2.11", "unit": "MPa"},
      {"measurement": "Mean Young's Modulus Intensity", "setting": "rabbit cornea [4]; listed as WST11-S", "value": 17.65, "unit": "MPa"},
      {"measurement": "Mean ultimate stress Intensity", "setting": "rabbit cornea [4]; listed as WST11-S", "value": 5.98, "unit": "MPa"},
      {"measurement": "Mean Young's Modulus Increase %", "setting": "rabbit cornea [4]", "value": 410, "unit": "%"},
      {"measurement": "Mean ultimate stress Increase %", "setting": "rabbit cornea [4]", "value": 286, "unit": "%"},
      {"measurement": "Mean Young's Modulus Increase %", "setting": "rabbit cornea [4]; listed as WST11-S", "value": 369, "unit": "%"},
      {"measurement": "Mean ultimate stress Increase %", "setting": "rabbit cornea [4]; listed as WST11-S", "value": 267, "unit": "%"},
      {"measurement": "increase in the corneal stiffness", "setting": "rabbit cornea [4]; 30 min pre-incubation then NIR, vs untreated control eyes", "value": "~3", "unit": "fold"}
    ]}
  ]
}
